In paper PMC6369240, “Biological evaluation and structure activity relationship of 9-methyl-1-phenyl-9H-pyrido[3,4-b]indole derivatives as anti-leishmanial agents” (Bioorganic Chemistry, 2019):

Key:
[1] = test system: L. infantum JPCM5 MCAN/ES/98/LLM-87 axenic amastigotes; assay: L. infantum axenic amastigote assay (Alamar blue); format: cell-based, Leishmania infantum; details: for S.I (CC50/IC50), L. infantum axenic amastigote: HeLa CC50 / L. infantum axenic amastigote EC50; for EC50: Leishmania infantum, 72 h, Alamar blue
Protocol: Alamar blue assay method was used to determine inhibition potential of these β-carboline derivatives against (human life stage forms) axenic amastigotes.
(§1) L. donovaniLdBOB axenic amastigotes or L. infantum JPCM5 MCAN/ES/98/LLM-87 were cultured at 37 °C in modified Eagle’s medium (HOMEM; L. infantum) and axenic amastigotes were incubated for 72 h with compounds, followed by Alamar blue-based assay as previously described.

[2] = HeLa cell cytotoxicity, Alamar blue assay; format: cell-based; details: human; HeLa cells, ~65 h incubation plus 5 h Alamar Blue
Protocol: HeLa cell cytotoxicity studies were carried out as described previously. Briefly, the cells were cultured in DMEM supplemented with 10% fetal calf serum and 2 mM L-glutamine. Cells were plated at initial cell concentration of 2 × 10^4 cells/well and incubated with the compounds for ∼65 h prior to addition of Alamar Blue solution for further 5 h.

[3] = test system: L. donovani promastigotes; assay: L. donovani promastigote assay (Alamar blue); format: cell-based, Leishmania donovani; details: for S.I (CC50/IC50), L. donovani promastigote: HeLa CC50 / L. donovani promastigote EC50; for EC50: Leishmania donovani, 72 h, Alamar blue
Protocol: (§2) Anti-leishmanial activity of these analogues was determined by evaluating their inhibition activity against both promastigote, amastigote forms of Leishmania infantum and Leishmania donovani strains. […] Anti-leishmanial drugs miltefosine and pentamidine were used as standards for comparison purpose.
L. donovani promastigote inhibition potency of these reported β-carboline derivatives was determined by Alamar blue assay method.
(§3) L. donovanipromastigotes were cultured at 37 °C in M199 medium supplemented with 10% heat-inactivated fetal calf serum. L. infantum JPCM5 MCAN/ES/98/LLM-87 promastigotes were cultured at 26 °C in modified Eagle’s medium (HOMEM). Parasites were incubated with serial dilutions of compounds for 72 h, followed by Alamar blue-based assay as previously described.

[4] = test system: L. donovani LdBOB axenic amastigotes; assay: L. donovani axenic amastigote assay (Alamar blue); format: cell-based, Leishmania donovani; details: for S.I (CC50/IC50), L. donovani axenic amastigote: HeLa CC50 / L. donovani axenic amastigote EC50; for EC50: 72 h, Alamar blue
Protocol: as §1

[5] = test system: L. infantum JPCM5 MCAN/ES/98/LLM-87 promastigotes; assay: L. infantum promastigote assay (Alamar blue); format: cell-based, Leishmania infantum; details: for S.I (CC50/IC50), L. infantum promastigote: HeLa CC50 / L. infantum promastigote EC50; for EC50: Leishmania infantum, 72 h, Alamar blue
Protocol: as §2
Anti-promastigote activity of these reported β-carboline derivatives was determined by Alamar blue assay method.
as §3

[6] = test system: L. donovani LdBOB intracellular amastigotes in PMA differentiated THP-1 cells; assay: Intra macrophage L. donovani (amastigote) assay in THP-1 cells; format: cell-based, Leishmania donovani; details: for S.I (CC50/IC50), L. donovani intracellular amastigote: HeLa CC50 / L. donovani intracellular amastigote EC50; for EC50: THP-1 macrophages, 72 h, microscopy readout
Protocol: Although, axenic amastigotes assay most commonly used to screen new leishmanial agents are different from intracellular amastigotes in terms of protein expression and drug susceptibility. […] THP-1 (human monocytic leukemia) cells were a kind gift from Dr Susan Wylie (Dundee) and maintained in minimal essential medium plus 10% (vol/vol) FBS. […] Briefly, THP-1 cells (20,000 per well, 200 μL) were plated into 96 well plates in presence of 10 nM PMA and incubated at 37 °C in 5% CO2 atmosphere for 75 h. […] Any remaining extracellular amastigotes were removed and the adhered cells were washed with the same supplemented PBS solution as above. Pre-aliquoted compounds in a serial dilution were added from another plate, such that the total well volume was 200 μL and incubated for further 72 h. Cells were fixed with 100% methanol, stained with Giemsa and examined microscopically.

[7] = Leishmania donovani, THP-1, 72 h

Row | Structure (SMILES) | S.I (CC50/IC50), L. infantum axenic amastigote [1] | EC50 [1] [nM] | CC50 [2] [µM] | S.I (CC50/IC50), L. donovani promastigote [3] | EC50 [3] [µM] | S.I (CC50/IC50), L. donovani axenic amastigote [4] | EC50 ([4]; Leishmania donovani) [µM] | S.I (CC50/IC50), L. infantum promastigote [5] | EC50 [5] [µM] | S.I (CC50/IC50), L. donovani intracellular amastigote [6] | EC50 [6, 7] [µM] | melting point [°C] | EC50 [6] [µM] | EC50 [4] [µM]
1 | Cn1c2ccccc2c2cc(C(=O)N3CCN(c4ccccc4)CC3)nc(-c3ccccc3)c21 [7a, (9-methyl-1-phenyl-9H-pyrido[3,4-b]indol-3-yl)(4-phenylpiperazin-1-yl)methanone] | >111.1 | 4500 ± 300 | > 500 | >42.0 | 11.9 ± 1.2 | 50.0 | 10 ± 0.3 | >52.9 | 9.45 ± 0.82 | 37.0 | 13.5 ± 2 | 232 to 234 | – | –
2 | Cc1ccc(N2CCN(C(=O)c3cc4c5ccccc5n(C)c4c(-c4ccccc4)n3)CC2)cc1 [7b, (9-methyl-1-phenyl-9H-pyrido[3,4-b]indol-3-yl)(4-p-tolylpiperazin-1-yl)methanone] | – | – | > 500 | >35.2 | 14.2 ± 1.2 | 86.2 | 5.8 ± 0.3 | >20.5 | 24.3 ± 1.3 | 63.3 | 7.2 | 188 to 190 | 7.9 ± 0.4 | –
3 | Cc1ccccc1N1CCN(C(=O)c2cc3c4ccccc4n(C)c3c(-c3ccccc3)n2)CC1 [7c, (9-methyl-1-phenyl-9H-pyrido[3,4-b]indol-3-yl)(4-o-tolylpiperazin-1-yl)methanone] | >192.3 | 2600 ± 200 | > 500 | >52.9 | 9.45 ± 0.72 | 94.3 | 5.3 ± 0.4 | >134.0 | 3.73 ± 0.28 | 53.2 | 7.8 | 148 to 150 | 9.4 ± 1.3 | –
4 | COc1cccc(N2CCN(C(=O)c3cc4c5ccccc5n(C)c4c(-c4ccccc4)n3)CC2)c1 [7e, (4-(3-methoxyphenyl)piperazin-1-yl)(9-methyl-1-phenyl-9H-pyrido[3,4-b]indol-3-yl)methanone] | – | – | > 500 | >17.5 | 28.5 ± 1.8 | – | – | >6.9 | 72.4 ± 6.7 | – | – | 196 to 198 | – | –
5 | Cn1c2ccccc2c2cc(C(=O)N3CCN(c4cccc(Cl)c4)CC3)nc(-c3ccccc3)c21 [7h, (4-(3-chlorophenyl)piperazin-1-yl)(9-methyl-1-phenyl-9H-pyrido[3,4-b]indol-3-yl)methanone] | – | – | > 500 | >125 | 4 ± 0.25 | 227.3 | 3.5 | >9.8 | – | 64.1 | 7.9 | 130 to 132 | 7.8 ± 1.3 | 2.2 ± 0.1
6 | Cn1c2ccccc2c2cc(C(=O)N3CCN(c4ccccc4Cl)CC3)nc(-c3ccccc3)c21 [7i, (4-(2-chlorophenyl)piperazin-1-yl)(9-methyl-1-phenyl-9H-pyrido[3,4-b]indol-3-yl)methanone] | – | – | > 500 | >32.9 | 15.2 ± 0.85 | 25.8 | 19.4 ± 1.2 | >23.0 | 21.7 ± 0.6 | 22.7 | 22 ± 2.1 | 152 to 154 | – | –
7 | Cn1c2ccccc2c2cc(C(=O)N3CCN(c4ccccc4F)CC3)nc(-c3ccccc3)c21 [7l, (4-(2-fluorophenyl)piperazin-1-yl)(9-methyl-1-phenyl-9H-pyrido[3,4-b]indol-3-yl)methanone] | – | – | > 500 | >5.8 | 85.9 ± 7.3 | – | – | >7.7 | 64.9 ± 5.7 | – | – | 168 to 170 | – | –
8 | Cn1c2ccccc2c2cc(C(=O)N3CCN(c4cccc(Cl)c4Cl)CC3)nc(-c3ccccc3)c21 [7m, (4-(2,3-dichlorophenyl)piperazin-1-yl)(9-methyl-1-phenyl-9H-pyrido[3,4-b]indol-3-yl)methanone] | – | – | > 500 | >4.3 | 118 ± 6.4 | – | – | >5.3 | 93 ± 7.5 | – | – | 166 to 168 | – | –
9 | Cn1c2ccccc2c2cc(C(=O)N3CCN(Cc4ccccc4)CC3)nc(-c3ccccc3)c21 [7n, (4-benzylpiperazin-1-yl)(9-methyl-1-phenyl-9H-pyrido[3,4-b]indol-3-yl)methanone] | – | – | > 500 | >109.4 | 4.57 ± 0.24 | 142.9 | 2.2 | >24.5 | 20.4 ± 1.4 | 89.3 | 5.6 ± 0.9 | 158 to 160 | – | 3.5 ± 0.2
10 | Cn1c2ccccc2c2cc(C(=O)N3CCN(c4ccncc4)CC3)nc(-c3ccccc3)c21 [7o, (9-methyl-1-phenyl-9H-pyrido[3,4-b]indol-3-yl)(4-(pyridin-4-yl)piperazin-1-yl)methanone] | – | – | 29.7 ± 1.5 | 1.52 | 19.5 ± 2.8 | 2.1 | 13.9 ± 0.4 | 0.48 | – | 4.1 | 7.9 | 198 to 200 | 7.2 ± 0.5 | –
11 | Cn1c2ccccc2c2cc(C(=O)N3CCN(c4ccccn4)CC3)nc(-c3ccccc3)c21 [7p, (9-methyl-1-phenyl-9H-pyrido[3,4-b]indol-3-yl)(4-(pyridin-2-yl)piperazin-1-yl)methanone] | – | – | 273 ± 21.6 | – | 8.5 ± 0.75 | 22.2 | 12.3 ± 0.6 | 5.97 | 45.7 ± 3.3 | 34.6 | 9.4 | 174 to 176 | 7.9 ± 0.3 | –
12 | N=C(N)c1ccc(OCCCCCOc2ccc(C(=N)N)cc2)cc1 [Pentamidine, reference compound] | – | 2700 ± 400 | – | – | 6.4 ± 0.11 | – | 1.6 ± 0.1 | – | 8.31 ± 0.18 | – | 23.7 ± 1.8 | – | – | –
